Target: T1, polycystin-2 (Homo sapiens, UniProt Q13563)
T1 construct: expressed in transfected cells
T1 sequence (Q13563 1-968): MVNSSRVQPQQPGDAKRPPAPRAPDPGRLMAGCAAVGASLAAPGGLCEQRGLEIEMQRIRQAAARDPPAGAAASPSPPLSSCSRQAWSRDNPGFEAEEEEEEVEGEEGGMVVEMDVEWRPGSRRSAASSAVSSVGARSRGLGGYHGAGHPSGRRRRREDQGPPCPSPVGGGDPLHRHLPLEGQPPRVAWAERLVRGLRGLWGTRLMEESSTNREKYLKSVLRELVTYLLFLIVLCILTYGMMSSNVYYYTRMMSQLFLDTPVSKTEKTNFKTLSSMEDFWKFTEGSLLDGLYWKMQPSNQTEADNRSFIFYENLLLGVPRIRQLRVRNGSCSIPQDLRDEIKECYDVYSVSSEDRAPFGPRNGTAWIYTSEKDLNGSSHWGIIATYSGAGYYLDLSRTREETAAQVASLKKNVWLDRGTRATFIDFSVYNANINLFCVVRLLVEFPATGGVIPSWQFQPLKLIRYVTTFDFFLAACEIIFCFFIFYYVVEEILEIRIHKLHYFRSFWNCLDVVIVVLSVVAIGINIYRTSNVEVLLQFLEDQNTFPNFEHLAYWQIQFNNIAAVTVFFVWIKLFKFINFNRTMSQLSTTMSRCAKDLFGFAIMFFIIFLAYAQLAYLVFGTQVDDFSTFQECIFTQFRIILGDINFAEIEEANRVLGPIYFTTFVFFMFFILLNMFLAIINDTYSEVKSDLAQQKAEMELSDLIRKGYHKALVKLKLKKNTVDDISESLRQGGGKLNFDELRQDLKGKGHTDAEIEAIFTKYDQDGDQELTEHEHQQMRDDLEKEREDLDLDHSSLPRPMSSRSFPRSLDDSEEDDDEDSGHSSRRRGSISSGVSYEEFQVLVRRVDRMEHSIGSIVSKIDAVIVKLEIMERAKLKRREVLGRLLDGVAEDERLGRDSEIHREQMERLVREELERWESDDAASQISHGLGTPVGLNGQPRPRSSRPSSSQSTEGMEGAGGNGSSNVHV
Type: cell-based
Settings: for Effect of external disulfide reducing agents on wild type polycystin-2 current: whole cilia configuration
Description: Generation of HEK PKD2^Null cells line and the stable expression PKD2 variants. To generate the HEK PKD2^Null cell lines, we used a CRISPR/Cas9 gene editing kit available from Addgene (kit 1000000055). HEK 293 cells were electro-transfected with sgRNAs (caccg[…] and aaac[…]c) with the All-in-one Cas9 plasmid. […] Cells generated from single cell clones were selected after 4 weeks of expansion in a 96-wells plate. […] To generate the WT and variant PKD2 GFP or mCherry C-terminally tagged variant cell lines, the hPKD gene was subcloned into lentiviral pLVX-mcherry-N1 (Clontech) or pLVX-GFP-N1 (Clontech) vector using the Gibson assembly method. A linker encoding for six glycine residues was added between the PKD2 gene and the C-terminal tags, and missense variants were generated using standard, site-directed mutagenesis. The third-generation lentiviral packaging plasmids used for stable expression contained: pMDLg/pRRE (Addgene), […] pRSV-Rev (Addgene), and envelope expressing plasmid pMD2.G (Addgene). LentiX-293T cells (Takara) were transfected with polyethylineimine (Polysciences) at a 4:1:1:1 ratio of the transgene and viral packaging constructs. Supernatants were collected 48 and 72 hours post transfection and filtered through a 0.45 μm syringe filter. Lentiviral supernatant was concentrated 100 times using 1 volume of PEG-it (System Biosciences) virus precipitation solution and 4 volume of lentivirus-containing supernatant. The PEG-it and supernatant mixture were kept at 4 degrees for 24 hours and centrifuged at 1500 rpm for 30 minutes. The pellet containing lentivirus was resuspended with 1/100th volume of PBS of the original supernatant volume. HEK cells were infected with the lentivirus supernatant; PKD2-GFP or PKD2-mCherry expression was selected using culture media containing puromycin (2 μg/ml) for 30 to 90 days. Cells were then fluorescence-activated cell sorted (BD FacsMelody) at 5000 to 10,000 counts per minute to enrich for the transgene expression. Stable cell lines were cultured in Dulbecco's modified essential medium (DMEM) supplemented with 10% fetal bovine serum (FBS) and 100 units/ml penicillin, 100 units/ml streptomycin and 1 μg/ml puromycin selection antibiotic.
Electrophysiology. Ciliary ion currents were recorded using borosilicate glass electrodes polished to resistances of 14-22 MΩ using the cilium patch method previously described^32. Whole cell electrodes used to measure poly cystin-2L1 currents were fire polished to 1.5-4 MΩ resistances. Unless otherwise stated, whole cilia ionic currents were recorded in symmetrical [Na^+]. The pipette standard internal solution contained (in mM): 90 NaMES, 10 NaCl, 10 HEPES, 10 Na4-BAPTA (Glycine, N, N′-[1,2-ethanediylbis(oxy-2,1-phenylene)]bis[N-(carboxymethyl)]-,tetrasodium); pH was adjusted to 7.3 using NaOH. Standard bath solution contained 140 NaCl, 10 HEPES, 1.8 CaCl2); pH 7.4. All solutions were osmotically balanced to 295 (±6) mOsm with mannitol. Extracellular solutions containing TCEP and GSH were used within six hours of formulation. Data were collected using an Axopatch 200B patch clamp amplifier, Digidata 1440A, and pClamp 10 software. Whole-cilium and excised patch currents were digitized at 25 kHz and low-pass filtered at 10 kHz. In the whole cilium configuration, the holding potential was −60 mV and then depolarized using a 400 ms voltage ramp from −100 mV to 100 mV. The whole cell recordings of polycystin-2L1 currents were either activated by the same ramp protocol or by 100 ms depolarizations to 100 mV from a −100 mV holding potential.

Structure (SMILES) | Effect of external disulfide reducing agents on wild type polycystin-2 current | Block of ciliary WT polycystin-2 currents by trivalent ions (10 μM, voltage ramps)
O=C(O)CCP(CCC(=O)O)CCC(=O)O [TCEP, tris-2-carboxyethyl phosphine] | near instantaneous reduction | 
N[C@@H](CCC(=O)N[C@@H](CS)C(=O)NCC(=O)O)C(=O)O [GSH, reduced glutathione] | near instantaneous reduction | 
[Gd] [gadolinium] |  | blocked

From patent publication US20210369677A1, “SMALL MOLECULE ACTIVATORS OF POLYCYSTIN-2 (PKD2) AND USES THEREOF” (Northwestern University, priority 2020, published 2021)
